Here are results for 6 compounds from patent publication US10570179B2, “Substituted urea depsipeptide analogs as activators of the CLPP endopeptidase” (priority 2016, dated 2020).

The structures appear in SMILES notation. Converted amounts (≈) assume the structure as drawn. Read-outs that look alike come from different tables or passages of the source. Numbered stars: 1 amine (or outer) side, 2 acyl side, 3 side chain; on linkers, the order of the positions; unused ones are H or OH. Bridge positions count the residues as written; N and C are the ends. Square brackets hold non-standard residues; d marks the D form. Peptide text beside a SMILES is read from it. * marks the point of attachment. Piperazine(2S-CO,4-Me) = CN1CCN[C@H](C(=O)O)C1; Phe(3-Me) = Cc1cccc(C[C@H](N)C(=O)O)c1; Pro(4S-Me) = C[C@@H]1CN[C@H](C(=O)O)C1; Pro(4R-Me) = C[C@H]1CN[C@H](C(=O)O)C1; Hyp = O=C(O)[C@@H]1C[C@@H](O)CN1; NH(3-Cl-phenyl) = Clc1cccc(N*)c1; NH(4-Et-phenyl) = CCc1ccc(N*)cc1; aThr = C[C@H](O)[C@H](N)C(=O)O; Pip = O=C(O)[C@@H]1CCCCN1; CO = O=C([*:1])[*:2]; X2 = Fc1cc(N*)ccc1Cl

The target in one test is T1, S. aureus ClpP (Sa-ClpP) (Staphylococcus aureus, UniProt Q2G036).
T1 construct: made in house; host or cells: E. coli BL21 (DE3)
T1 sequence (Q2G036 whole entry): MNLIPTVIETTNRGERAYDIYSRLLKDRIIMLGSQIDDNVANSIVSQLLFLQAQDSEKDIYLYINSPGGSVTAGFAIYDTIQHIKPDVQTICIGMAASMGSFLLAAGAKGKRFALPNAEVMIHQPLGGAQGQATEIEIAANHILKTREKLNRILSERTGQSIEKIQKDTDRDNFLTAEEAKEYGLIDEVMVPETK
Put plainly: Casein-BODIPY digestion assay (ClpP activation). Format: biochemical.

A further test relates to S. aureus ΔClpP. The experiment in a line: Minimal inhibitory concentration, microbroth dilution. Format: cell-based, Staphylococcus aureus. The settings on record: MIC; ClpP inactivated. In a few lines:
(§1)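 Compound was diluted twofold in the appropriate broth. Bacterial suspension (approx. 10^5 cfu/mL) was then added in equal volume, giving a maximum test concentration of 200 μM. After aerobic overnight incubation at 37 °C, wells were inspected visually for growth.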
(In broth dilution the organism is exposed to a series of concentrations in liquid medium.)

The test system of another test is E. faecails. Described as above. Format: cell-based. Conditions: Enterococcus faecalis. Summed up: as §1
The next test concerns MRSA NRS70. The description is as above. The settings on record: Staphylococcus aureus. Format: cell-based. In a few lines: as §1
A further test concerns S. aureus ATCC 29213. Described as above. Format: cell-based. Conditions: Staphylococcus aureus. Summed up:
as §1

The subject of another test is S. aureus USA 300. The description is as above. The settings on record: Staphylococcus aureus. It counts as cell-based. Summed up:
as §1

[1] abbreviates: read-out: Minimal Inhibitory Concentrations (μM) E. faecails, MIC.
Setting [2] is: read-out: Minimal Inhibitory Concentrations (μM) MRSA NRS70, MIC.
The mark [3] stands for this setting: ATCC29213, read-out: Minimal Inhibitory Concentrations (μM) S. aureus ATCC 29213, MIC.
[4] abbreviates: USA300, read-out: Minimal Inhibitory Concentrations (μM) S. aureus USA 300, MIC.
Where [5] appears, read: MIC, read-out: Minimal Inhibitory Concentrations (μM) E. faecails.
The mark [6] stands for this setting: MIC, read-out: Minimal Inhibitory Concentrations (μM) MRSA NRS70.
The mark [7] stands for this setting: ATCC29213, MIC, read-out: Minimal Inhibitory Concentrations (μM) S. aureus ATCC 29213.
Setting [8] is: USA300, MIC, read-out: Minimal Inhibitory Concentrations (μM) S. aureus USA 300.

One may read the EC50 as the midpoint of the concentration-response curve. A higher EC50 goes with weaker potency.

On S. aureus ClpP (Sa-ClpP), `Cc1cccc(C[C@H](NC(=O)Nc2cccc(Cl)c2)C(=O)N[C@H]2COC(=O)[C@@H]3CCCN3C(=O)[C@H](C)NC(=O)[C@@H]3CCCCN3C(=O)[C@@H]3C[C@@H](O)CN3C2=O)c1` [Compound 57, (S)-2-(3-(3-CHLOROPHENYL)UREIDO)-N-((6S,8AS,14AS,16R,20S,23AS)-16-HYDROXY-6-METHYL-5,8,14,19,23-PENTAOXOOCTADECAHYDRO-1H,5H,14H,19H-PYRIDO[2,1-I]DIPYRROLO[2,1-C:2′,1′-L][1]OXA[4,7,10,13]TETRAAZACYCLOHEXADECIN-20-YL)-3-(M-TOLYL)PROPANAMIDE] returned a concentration for a half-maximal effect (EC50) of 1880 ± 2400 nM. In addition, the “Minimal Inhibitory Concentrations (μM) S. aureus ΔClpP” value with S. aureus ΔClpP is more than 20 µM. Further, the MIC with E. faecails (setting [1]) is 10 µM (≈ 7.94 µg/mL); in the test with MRSA NRS70 (setting [2]) it was 10 µM (≈ 7.94 µg/mL); in the test on S. aureus ATCC 29213 (setting [3]) it was 20 µM (≈ 15.9 µg/mL); in the test with S. aureus USA 300 (setting [4]), 10 µM (≈ 7.94 µg/mL).

In the case of `Cc1cccc(C[C@H](NC(=O)Nc2ccc(Cl)c(F)c2)C(=O)N[C@@H]2C(=O)N3C[C@H](O)C[C@H]3C(=O)N3CCCC[C@H]3C(=O)N[C@@H](C)C(=O)N3C[C@@H](C)C[C@H]3C(=O)O[C@H]2C)c1` [Compound 77, (S)-2-(3-(4-CHLORO-3-FLUOROPHENYL)UREIDO)-N-((2S,6S,8AS,14AS,16R,20S,21S,23AS)-16-HYDROXY-2,6,21-TRIMETHYL-5,8,14,19,23-PENTAOXOOCTADECAHYDRO-1H,5H,14H,19H-PYRIDO[2,1-I]DIPYRROLO[2,1-C:2′,1′-L][1]OXA[4,7,10,13]TETRAAZACYCLOHEXADECIN-20-YL)-3-(M-TOLYL)PROPANAMIDE] ({X2-CO}-[Phe(3-Me)][aThr][Hyp][Pip]A[Pro(4S-Me)]; ester 2-C), the EC50 at S. aureus ClpP (Sa-ClpP) turned out to be 450 ± 200 nM. Further, the “Minimal Inhibitory Concentrations (μM) S. aureus ΔClpP” value in the test on S. aureus ΔClpP came to 5 µM. The MIC in the test with E. faecails (setting [5]) was determined as 1.25 µM (≈ 1.05 µg/mL); in the test on MRSA NRS70 (setting [6]) it was 0.625 µM (≈ 0.525 µg/mL); in the test on S. aureus ATCC 29213 (setting [7]), 0.625 µM (≈ 0.525 µg/mL); in the test with S. aureus USA 300 (setting [8]), 1.25 µM (≈ 1.05 µg/mL).

The compound `Cc1cccc(C[C@H](NC(=O)Nc2ccc(Cl)cc2)C(=O)N[C@H]2COC(=O)[C@@H]3C[C@@H](C)CN3C(=O)[C@H](C)NC(=O)[C@@H]3CCCCN3C(=O)[C@@H]3CCCN3C2=O)c1` [Compound 71, (S)-2-(3-(4-CHLOROPHENYL)UREIDO)-N-((2R,6S,8AS,14AS,20S,23AS)-2,6-DIMETHYL-5,8,14,19,23-PENTAOXOOCTADECAHYDRO-1H,5H,14H,19H-PYRIDO[2,1-I]DIPYRROLO[2,1-C:2′,1′-L][1]OXA[4,7,10,13]TETRAAZACYCLOHEXADECIN-20-YL)-3-(M-TOLYL)PROPANAMIDE] yielded a concentration giving a half-maximal response (EC50) on S. aureus ClpP (Sa-ClpP) of 250 ± 100 nM. For the same compound, the “Minimal Inhibitory Concentrations (μM) S. aureus ΔClpP” value with S. aureus ΔClpP is more than 20 µM. Further, the MIC amounted to 0.313 µM (≈ 0.248 µg/mL) in the test with E. faecails (setting [1]), 0.313 µM (≈ 0.248 µg/mL) in the test with MRSA NRS70 (setting [2]), 0.625 µM (≈ 0.495 µg/mL) in the test on S. aureus ATCC 29213 (setting [3]) and 0.625 µM (≈ 0.495 µg/mL) with S. aureus USA 300 (setting [4]).

Take `Cc1cccc(C[C@H](NC(=O)Nc2cccc(Cl)c2)C(=O)N[C@@H]2C(=O)N3C[C@H](O)C[C@H]3C(=O)N3CCN(C)C[C@H]3C(=O)N[C@@H](C)C(=O)N3C[C@H](C)C[C@H]3C(=O)O[C@H]2C)c1` [Compound 69, (S)-2-(3-(3-CHLOROPHENYL)UREIDO)-N-((6AS,8R,12S,13S,15AS,17R,21S,23AS)-8-HYDROXY-2,13,17,21-TETRAMETHYL-6,11,15,20,23-PENTAOXOOCTADECAHYDRO-2H,6H,11H,15H-PYRAZINO[2,1-I]DIPYRROLO[2,1-C:2′,1′-L][1]OXA[4,7,10,13]TETRAAZACYCLOHEXADECIN-12-YL)-3-(M-TOLYL)PROPANAMIDE] ({NH(3-Cl-phenyl)-CO}-[Phe(3-Me)][aThr][Hyp][Piperazine(2S-CO,4-Me)]A[Pro(4R-Me)]; ester 2-C): on S. aureus ClpP (Sa-ClpP), the midpoint of the response, the EC50, lay at 390 ± 800 nM. Further, in the test with S. aureus ΔClpP, the “Minimal Inhibitory Concentrations (μM) S. aureus ΔClpP” value was more than 20 µM. Also, the MIC with E. faecails (setting [1]) stood at 5 µM (≈ 4.19 µg/mL); with MRSA NRS70 (setting [2]), 5 µM (≈ 4.19 µg/mL); in the test on S. aureus ATCC 29213 (setting [3]), 5 µM (≈ 4.19 µg/mL); with S. aureus USA 300 (setting [4]) it was 2.5 µM (≈ 2.09 µg/mL).

At S. aureus ClpP (Sa-ClpP), `CCc1ccc(NC(=O)N[C@@H](Cc2cccc(C)c2)C(=O)N[C@H]2COC(=O)[C@@H]3CCCN3C(=O)[C@H](C)NC(=O)[C@@H]3CCCCN3C(=O)[C@@H]3C[C@@H](O)CN3C2=O)cc1` [Compound 55, (S)-2-(3-(4-ETHYLPHENYL)UREIDO)-N-((6S,8AS,14AS,16R,20S,23AS)-16-HYDROXY-6-METHYL-5,8,14,19,23-PENTAOXOOCTADECAHYDRO-1H,5H,14H,19H-PYRIDO[2,1-I]DIPYRROLO[2,1-C:2′,1′-L][1]OXA[4,7,10,13]TETRAAZACYCLOHEXADECIN-20-YL)-3-(M-TOLYL)PROPANAMIDE] showed an EC50 of 1050 ± 1000 nM. In addition, the “Minimal Inhibitory Concentrations (μM) S. aureus ΔClpP” value in the test with S. aureus ΔClpP is more than 20 µM. The MIC in the test on E. faecails (setting [5]) came out at 2.5 µM (≈ 1.97 µg/mL); in the test on MRSA NRS70 (setting [6]), 2.5 µM (≈ 1.97 µg/mL); in the test on S. aureus ATCC 29213 (setting [7]), 5 µM (≈ 3.94 µg/mL); in the test on S. aureus USA 300 (setting [8]), 2.5 µM (≈ 1.97 µg/mL).

Compound `CCc1ccc(NC(=O)N[C@@H](Cc2cccc(C)c2)C(=O)N[C@@H]2C(=O)N3C[C@H](O)C[C@H]3C(=O)N3CCCC[C@H]3C(=O)N[C@@H](C)C(=O)N3C[C@@H](C)C[C@H]3C(=O)O[C@H]2C)cc1` [Compound 65, (S)-2-(3-(4-ETHYLPHENYL)UREIDO)-N-((2S,6S,8AS,14AS,16R,20S,21S,23AS)-16-HYDROXY-2,6,21-TRIMETHYL-5,8,14,19,23-PENTAOXOOCTADECAHYDRO-1H,5H,14H,19H-PYRIDO[2,1-I]DIPYRROLO[2,1-C:2′,1′-L][1]OXA[4,7,10,13]TETRAAZACYCLOHEXADECIN-20-YL)-3-(M-TOLYL)PROPANAMIDE] ({NH(4-Et-phenyl)-CO}-[Phe(3-Me)][aThr][Hyp][Pip]A[Pro(4S-Me)]; ester 2-C) had an EC50 at S. aureus ClpP (Sa-ClpP) of 410 ± 100 nM. For the same compound, the “Minimal Inhibitory Concentrations (μM) S. aureus ΔClpP” value in the test on S. aureus ΔClpP is more than 20 µM. Moreover, the MIC amounted to 1.25 µM (≈ 1.02 µg/mL) with E. faecails (setting [5]), 0.156 µM (≈ 0.127 µg/mL) with MRSA NRS70 (setting [6]), 0.313 µM (≈ 0.255 µg/mL) in the test with S. aureus ATCC 29213 (setting [7]) and 0.156 µM (≈ 0.127 µg/mL) in the test with S. aureus USA 300 (setting [8]).
